Data taken from ChEMBL document CHEMBL1201862, “PubChem BioAssay data set” (2004).
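All cell lines were grown in 96-well plates and treated with compound for 48 hours. The concentration for 50% growth inhibition is given as GI50.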 The source made the active and inactive calls. Rule as the data show it: active = GI50 up to about 1.1 µM and inactive = higher.

Key:
Experiment in all cases: NCI tumour cell line growth inhibition, 48 h
[1] = system: EKVX
[2] = system: HCC 2998
[3] = system: HCT-116
[4] = system: HCT-15
[5] = system: HT-29
[6] = system: IGROV-1
[7] = system: K562
[8] = system: LOX IMVI
[9] = system: NCI-H226
[10] = system: NCI-H23
[11] = system: NCI-H460
[12] = system: OVCAR-8
[13] = system: RPMI-8226
[14] = system: SF-539
[15] = system: SK-MEL-2
[16] = system: SK-MEL-5
[17] = system: SNB-75
[18] = system: SW-620
[19] = system: OVCAR-5

| Structure (SMILES) | GI50 [1] | GI50 [2] | GI50 [3] | GI50 [4] [µM] | GI50 [5] | GI50 [6] | GI50 [7] | GI50 [8] | GI50 [9] | GI50 [10] | GI50 [11] | GI50 [12] | GI50 [13] | GI50 [14] | GI50 [15] | GI50 [16] | GI50 [17] | GI50 [18] | GI50 [19] |
| --- | --- | --- | --- | --- | --- | --- | --- | --- | --- | --- | --- | --- | --- | --- | --- | --- | --- | --- | --- |
| O=c1ccn([C@@H]2C[C@H](CO)C[S+]([O-])C2)c(=O)[nH]1 (stereo partly specified) | > 100 µM (inactive) | > 100 µM (inactive) | > 100 µM (inactive) | > 100 | > 100 µM (inactive) | > 100 µM (inactive) | > 100 µM (inactive) | > 100 µM (inactive) | > 100 µM (inactive) | > 100 µM (inactive) | > 100 µM (inactive) | > 100 µM (inactive) | > 100 µM (inactive) | > 100 µM (inactive) | > 100 µM (inactive) | > 100 µM (inactive) | > 100 µM (inactive) | > 100 µM (inactive) | – |
| NC(=O)CC(N/C=C1/N=C(c2ccccc2)OC1=O)C(=O)O (stereo unspecified) | > 100 µM (inactive) | > 100 µM (inactive) | > 100 µM (inactive) | > 100 | > 100 µM (inactive) | > 100 µM (inactive) | > 100 µM (inactive) | > 100 µM (inactive) | > 100 µM (inactive) | > 100 µM (inactive) | > 100 µM (inactive) | > 100 µM (inactive) | > 100 µM (inactive) | > 100 µM (inactive) | > 100 µM (inactive) | > 100 µM (inactive) | > 100 µM (inactive) | > 100 µM (inactive) | > 100 µM (inactive) |
| CN(CCCCN)c1ccc2c(=O)[nH][nH]c(=O)c2c1 | > 100 µM (inactive) | > 100 µM (inactive) | > 100 µM (inactive) | > 100 | > 100 µM (inactive) | > 44.9 µM (inactive) | > 100 µM (inactive) | > 100 µM (inactive) | > 100 µM (inactive) | 2.24 µM (inactive) | > 100 µM (inactive) | > 10 µM (inactive) | > 100 µM (inactive) | > 100 µM (inactive) | > 100 µM (inactive) | > 10 µM (inactive) | 88.3 µM (inactive) | > 100 µM (inactive) | > 100 µM (inactive) |
| Cc1cc(C)c(C2[C@H]3C(=O)N(c4ccc(Cc5ccc(N6C(=O)[C@@H]7ON(c8ccccc8)C(c8c(C)cc(C)cc8C)[C@@H]7C6=O)cc5)cc4)C(=O)[C@H]3ON2c2ccccc2)c(C)c1 (stereo partly specified) | > 100 µM (inactive) | > 100 µM (inactive) | > 100 µM (inactive) | > 100 | > 100 µM (inactive) | > 100 µM (inactive) | > 100 µM (inactive) | > 100 µM (inactive) | > 100 µM (inactive) | > 100 µM (inactive) | > 100 µM (inactive) | > 100 µM (inactive) | > 100 µM (inactive) | > 100 µM (inactive) | > 100 µM (inactive) | > 100 µM (inactive) | > 100 µM (inactive) | > 100 µM (inactive) | > 100 µM (inactive) |
| Cc1cc(C)nc(NS(=O)(=O)c2ccc(NC(=O)c3cccc4c(=O)c5ccccc5[nH]c34)cc2)n1 | 26.5 µM (inactive) | 16.7 µM (inactive) | 17 µM (inactive) | 19.7 | 21.3 µM (inactive) | 26.1 µM (inactive) | 18.6 µM (inactive) | 15.2 µM (inactive) | 19.1 µM (inactive) | 17 µM (inactive) | 17 µM (inactive) | 19.2 µM (inactive) | 10.9 µM (inactive) | 18.4 µM (inactive) | > 10 µM (inactive) | 11.7 µM (inactive) | 18.5 µM (inactive) | 23.5 µM (inactive) | > 10 µM (inactive) |
| CN1C(=O)C(=O)c2cc3c(c4c2c1cc1ccccc14)OCO3 [CEPHARADIONE A] | 69.7 µM (inactive) | 49.1 µM (inactive) | 15.6 µM (inactive) | 36.1 | 34.4 µM (inactive) | 37.6 µM (inactive) | 27.2 µM (inactive) | 23 µM (inactive) | 25.2 µM (inactive) | 40.7 µM (inactive) | 26.7 µM (inactive) | 24.1 µM (inactive) | 25.1 µM (inactive) | 45.6 µM (inactive) | 46.7 µM (inactive) | 28.4 µM (inactive) | 39.2 µM (inactive) | 35.4 µM (inactive) | 48.8 µM (inactive) |
| CC(C)Cc1cc(CCC(=O)Nc2ccccc2[N+](=O)[O-])nc(NC#N)n1 | > 100 µM (inactive) | > 100 µM (inactive) | > 100 µM (inactive) | > 100 | > 100 µM (inactive) | > 100 µM (inactive) | > 100 µM (inactive) | > 100 µM (inactive) | > 100 µM (inactive) | > 100 µM (inactive) | > 100 µM (inactive) | > 100 µM (inactive) | > 100 µM (inactive) | > 100 µM (inactive) | – | > 100 µM (inactive) | > 100 µM (inactive) | > 100 µM (inactive) | > 100 µM (inactive) |
| COc1ccc(/C=C2\C(=O)N(NC(C)=O)c3ccccc32)cc1 | 48.8 µM (inactive) | 71.6 µM (inactive) | 63.4 µM (inactive) | 67.9 | 42 µM (inactive) | > 100 µM (inactive) | 28.6 µM (inactive) | > 100 µM (inactive) | > 100 µM (inactive) | > 100 µM (inactive) | > 100 µM (inactive) | 48.1 µM (inactive) | 37.4 µM (inactive) | > 100 µM (inactive) | > 100 µM (inactive) | 46.2 µM (inactive) | 33.5 µM (inactive) | 95.9 µM (inactive) | > 100 µM (inactive) |
| O=C1CCCN(c2ccccc2)N1 | > 100 µM (inactive) | > 100 µM (inactive) | > 100 µM (inactive) | > 100 | > 100 µM (inactive) | > 100 µM (inactive) | > 100 µM (inactive) | > 100 µM (inactive) | > 100 µM (inactive) | – | > 100 µM (inactive) | > 100 µM (inactive) | > 100 µM (inactive) | > 100 µM (inactive) | > 100 µM (inactive) | > 100 µM (inactive) | > 100 µM (inactive) | > 100 µM (inactive) | > 100 µM (inactive) |
| CCN(CC)CCC1CC/C(=C\c2ccc(OC)cc2)C1=O (stereo unspecified) | > 100 µM (inactive) | > 100 µM (inactive) | 87.9 µM (inactive) | 38.7 | 39.3 µM (inactive) | > 100 µM (inactive) | 40 µM (inactive) | > 100 µM (inactive) | > 100 µM (inactive) | – | – | > 100 µM (inactive) | 40.9 µM (inactive) | > 100 µM (inactive) | > 100 µM (inactive) | 23.6 µM (inactive) | > 100 µM (inactive) | > 100 µM (inactive) | > 100 µM (inactive) |
| C[C@@H]1[C@H](O)CC2=C(CC[C@@H](O)C2(C)C)[C@@]1(CO)CCc1ccoc1 | > 50 µM (inactive) | > 50 µM (inactive) | > 50 µM (inactive) | > 50 | > 50 µM (inactive) | > 50 µM (inactive) | > 50 µM (inactive) | > 50 µM (inactive) | > 50 µM (inactive) | > 50 µM (inactive) | > 50 µM (inactive) | > 50 µM (inactive) | – | > 50 µM (inactive) | > 50 µM (inactive) | > 50 µM (inactive) | 31.8 µM (inactive) | > 50 µM (inactive) | > 50 µM (inactive) |
| COc1cc2c[n+](C)c3c4cc(OC)c(OC)cc4c(OCCCCCCCCOc4cc5c6cc(OC)c(OC)cc6c[n+](C)c5c5cc(OC)c(OC)cc45)cc3c2cc1OC | > 100 µM (inactive) | > 100 µM (inactive) | > 100 µM (inactive) | > 100 | 67.9 µM (inactive) | > 100 µM (inactive) | 8.71 µM (inactive) | > 100 µM (inactive) | > 100 µM (inactive) | > 100 µM (inactive) | > 100 µM (inactive) | > 100 µM (inactive) | 22.3 µM (inactive) | 51.4 µM (inactive) | > 100 µM (inactive) | 47.8 µM (inactive) | 58.6 µM (inactive) | > 100 µM (inactive) | > 100 µM (inactive) |
| CCOC(=O)Oc1c(OC)cc(C(=O)NC2CCc3cc(OC)c(OC)c(OC)c3-c3ccc(SC)c(=O)cc32)cc1OC (stereo unspecified) | 0.16 µM (active) | 0.0473 µM (active) | 0.0566 µM (active) | 0.445 | 0.0484 µM (active) | 0.0506 µM (active) | < 0.007 µM (active) | 0.0466 µM (active) | 0.0471 µM (active) | 0.0439 µM (active) | 0.164 µM (active) | 0.092 µM (active) | – | 0.0245 µM (active) | 0.0466 µM (active) | 0.0456 µM (active) | 0.071 µM (active) | 0.0419 µM (active) | – |
| COC(=O)C(C#N)=C1c2ccccc2Oc2ccccc21 | > 100 µM (inactive) | 98.9 µM (inactive) | – | > 100 | 39.3 µM (inactive) | 64.3 µM (inactive) | 31.5 µM (inactive) | > 100 µM (inactive) | 65.5 µM (inactive) | 56.9 µM (inactive) | > 100 µM (inactive) | 43.4 µM (inactive) | 18.8 µM (inactive) | 75.7 µM (inactive) | > 100 µM (inactive) | 33.9 µM (inactive) | 42.2 µM (inactive) | 43.2 µM (inactive) | > 100 µM (inactive) |
| O=C1c2ccccc2C2CCC1c1ccccc12 (stereo unspecified) | 43.4 µM (inactive) | 53.1 µM (inactive) | 19.6 µM (inactive) | 30.6 | 29.9 µM (inactive) | 62.2 µM (inactive) | 23.6 µM (inactive) | 36.3 µM (inactive) | 45.6 µM (inactive) | 24 µM (inactive) | 33.3 µM (inactive) | 43.2 µM (inactive) | 16 µM (inactive) | 64 µM (inactive) | 32.1 µM (inactive) | 16.3 µM (inactive) | 24.5 µM (inactive) | 39.2 µM (inactive) | > 100 µM (inactive) |
